Tests used:
Assay type in all cases: cell-based
[1] = system: GS15; experiment: GS15 expression in 3T3 cells; settings: beginning around 2 to 4 hrs of exposure
Excerpt: Likewise, the non-resident golgi protein Rab6 appeared to be unaffected in some cell types, as illustrated in FIG. 31.

[2] = system: MOLT4 cells; experiment: Electron microscopic analysis of golgi structure; settings: 200 ng/mL, 2 hrs and 18 hrs
Procedure: Experiments were conducted to examine the golgi structure and morphology on the ultrastructural level following treatment with AVP 893. […] This finding was repeated with Vero cells, where AVP 893 was applied for 1 hr, 4 hrs, and 18 hrs, with the later two exposures resulting in disruption of cisternal structure (data not shown). We therefore conclude that AVP 893 disturbs the structure of the golgi cistemae within a few hours of treatment.

[3] = system: calnexin; experiment: Calnexin expression by Western blotting (control)
Procedure: The culture medium was removed by vacuuming (for attached cells) or by low speed centrifugation (for suspension cells) for 5-7 minutes at room temperature. The cells were wasedh twith PBS, spun at 1200 rpm and the cell pellets were kept on ice. 300 μl/2.0×10^7 cells of ice cold lysis buffer was added with freshly added protease inhibitors. Cell pellets were gently resuspended and incubated on ice for at least 30 min, vortexed a few times during incubation. Cell lysate was spun at 14,000 rpm for 2-5 min at 4° C. The supernatant was transferred to a new microfuge tube and the pellet was discarded. An aliquot of sample was mixed with an equal volume of 2× sample buffer (InVitrogen), and stored at −80° C. Protein concentration was determined by using “BCA protein assay reagent kit” from Pierce.
Protein samples (in sample buffer) were boiled for 1-3 minutes and put on ice. Same amount of protein were loaded on the NuPage gel (InVitrogen). […]
To further examine the putative protein trafficking effects of AVP 893, other proteins in this pathway were tested in vitro in B16 and other cell lines. […] Other cell lines were tested for their expression of GS28 and nicastrin and found to respond similarly to drug, although quantitative differences were evident. […]

[4] = system: Rab1a; experiment: Rab1a expression by Western blotting; settings: 3T3 cells
Procedure: Protein samples (in sample buffer) were boiled for 1-3 minutes and put on ice. Same amount of protein were loaded on the NuPage gel (InVitrogen). After the electrophoresis was complete, proteins were transferred from the gel to a PVDF membrane using the electro-blotting apparatus from InVitrogen; the voltage was set to 25 for 2-3 hr. Block non-specific binding by incubating membrane with 5% milk (in PBS, 0.1% tween 20) for at least 30 min at room temperature or overnight at 4° C. The blocked membrane was incubated with primary antibody (See TABLE 2) diluted in 5% milk for 1 hour at room temperature. Optimal antibody dilution depends on the company, the amount of protein. Dilutions of 1:1000 were generally used for the primary antibodies from Santa Cruz. The membrane was washed with PBS, 0.1% tween 3-4 times 5 mins. The membrane was incubated for 30-60 minutes at room temperature with horseradish peroxidase (HRP) conjugated secondary antibody diluted in 5% milk. We usually used 1:4000 dilution for the secondary antibody from Santa Cruz. The membrane was washed 3-4 times with PBS, 0.1% tween, each time 15 minutes. The detection solutions A and B were mixed in a ratio 40:1 and Pipetted onto the membrane, and incubated for 5 min at RT. A sheet of Hyper film ECL was placed on the top of the membrane in the dark and exposed for 1 min, or adjust accordingly. […]

Q: Which GS15 staining [1] does the source give for `O=C(Nc1ccc(-c2nc3cc(NC(=O)C4CCCCC4)ccc3[nH]2)cc1)C1CCCCC1` [AVP 893] here?
A: greatly diminished

Q: And the “golgi structure by electron microscopy” value [2]?
A: no golgi cisternae were found

Q: And the levels of calnexin ([3]; drug-treated cell lines)?
A: unchanged

Q: And the calnexin expression ([3]; stimulated BALB/c spleen cells, 100 ng/ml, 20 hours)?
A: minimally affected

Q: And the Rab1a expression [4]?
A: mild response
